Measured values from paper PMC4607407 (PLoS ONE, 2015).
Where two headings read alike, the source gives them in different places. Values belong to the molecule of their own block, whether it stands above or below them.

How the values were obtained:
MDA-MB-453 = test: Cell proliferation MTS assay; format: cell-based; details: Homo sapiens, read-out: IC50 MDA-MB-453 (PIK3CAH1047R)
Description: (§1) IC50 was calculated using Activity Base. Data shown as mean ± standard deviation. […] (DOCX) Click here for additional data file.
(§2) Treated cells were incubated at 37°C for 72 hours in 5% CO2.
(§3) The GI50 was then determined using Microsoft ExcelFit software in Activity Base.

KU-19-19 = test: Cell proliferation MTS assay; format: cell-based; details: Homo sapiens, read-out: IC50 KU-19-19 (AKT1-E17K, NrasQ61R)
Description: as §1, §2, §3

NCI-H1650 = test: Cell proliferation MTS assay; format: cell-based; details: Homo sapiens, read-out: IC50 NCI-H1650 (PTEN null)
Description: as §1, §2, §3

AKT1-E17K = target: T1, AKT1-E17K (Homo sapiens, UniProt P31749, E17K); test: AKT1 plasma membrane translocation in NIH 3T3 cells; format: cell-based; details: NIH 3T3, 1 μM for 2 hours, PDGF-BB 50 ng/ml 10 minutes
T1 construct: host or cells: NIH 3T3 cells
Description: (§4) Cells (15,000 cells per chamber) were plated into a Nunc Lab-Tek Chambered Coverglass System (Thermo Fisher Scientific, Waltham, MA) containing full media without antibiotics. […] Next, the cells were stimulated with PDGF (PeproTech, Rocky Hill, NJ) at 50 ng/ml for 10 minutes. Cells were washed with PBS and then fixed with 200 μl paraformaldehyde fixation buffer (3% paraformaldehyde, 2% sucrose in PBS, pre-warmed at […]). After washing with PBS, cells were blocked and permeabolized with 0.1% TX-100 + 1% BSA in PBS for 15 minutes at room temperature. Next, 200 μl DAPI (1 μg/ml in PBS) was used to counterstain the nuclei at room temperature in darkness for 15 minutes. Samples were then rinsed with cold PBS and stored at 4°C until imaging. Images were captured using an Olympus inverted epi-fluorescent microscope (Olympus Corporation of America, Center Valley, PA) with a 60x oil immersion objective.

AKT1-WT = target: T2, AKT1-WT (Homo sapiens, UniProt P31749); test: as above; format: cell-based; details: NIH 3T3, 1 μM for 2 hours, PDGF-BB 50 ng/ml 10 minutes
T2 construct: host or cells: NIH 3T3 cells
Description: as §4

KPL-4 tumors = test: KPL-4 xenograft combination study; format: in vivo, mice; details: vs untreated control; ARQ 092 60 mg/kg oral daily 12 days; trastuzumab 15 mg/kg iv every three days; paclitaxel 15 mg/kg iv every 6 days
[1] = tested on: melanoma PDX tumor model (ST052C); test: Vemurafenib-resistant melanoma PDX combination study; format: in vivo, mice; details: ARQ 092 100 mg/kg 5 days on 2 days off; trametinib 3 mg/kg; p<0.05

T2 sequence (P31749 whole entry): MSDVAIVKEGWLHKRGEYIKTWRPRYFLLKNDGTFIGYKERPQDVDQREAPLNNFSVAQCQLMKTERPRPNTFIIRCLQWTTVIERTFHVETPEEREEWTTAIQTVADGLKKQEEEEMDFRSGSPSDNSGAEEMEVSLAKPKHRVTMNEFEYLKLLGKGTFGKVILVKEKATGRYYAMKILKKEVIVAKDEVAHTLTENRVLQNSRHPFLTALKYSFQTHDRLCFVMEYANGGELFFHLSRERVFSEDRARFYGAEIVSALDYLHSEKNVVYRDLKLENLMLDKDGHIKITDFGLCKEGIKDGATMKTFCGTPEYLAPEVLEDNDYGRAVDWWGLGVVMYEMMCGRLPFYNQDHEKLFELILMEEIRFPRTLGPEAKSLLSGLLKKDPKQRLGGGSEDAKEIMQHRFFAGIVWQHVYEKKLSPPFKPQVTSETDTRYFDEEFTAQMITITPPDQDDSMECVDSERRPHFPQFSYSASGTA
T1 sequence (P31749 whole entry E17K): as the sequence (P31749 whole entry) above, with E17K counted along it

Compound: CC(C)NC[C@@H](C(=O)N1CCN(c2ncnc3c2[C@H](C)C[C@H]3O)CC1)c1ccc(Cl)cc1 [GDC-0068, reference compound]
IC50 (MDA-MB-453; MDA-MB-453, 72 h): 1 ± 0.16 µM | IC50 (KU-19-19; KU-19-19, 72 h): 55 ± 5.1 µM | IC50 (NCI-H1650; NCI-H1650, 72 h): > 33.3 µM | plasma membrane translocation of AKT1-E17K (AKT1-E17K): stimulated translocation | plasma membrane translocation of AKT1-WT (AKT1-WT): stimulated translocation

IC50 (MDA-MB-453; MDA-MB-453, MTS, 72 hours, mean ± standard deviation): 0.26 ± 0.02 µM | IC50 (NCI-H1650; NCI-H1650, MTS, 72 hours, mean ± standard deviation): 15.2 ± 3.01 µM | plasma membrane translocation of AKT1-E17K (AKT1-E17K): only weakly inhibited | plasma membrane translocation of AKT1-WT (AKT1-WT): inhibited
Compound: NC1(c2ccc(-c3nc4ccn5c(=O)[nH]nc5c4cc3-c3ccccc3)cc2)CCC1 [MK-2206, reference compound]
IC50 (KU-19-19; KU-19-19, MTS, 72 hours, mean ± standard deviation): 21.5 ± 5.3 µM

Compound: CC(=O)O[C@H]1C(=O)[C@@]2(C)[C@H]([C@H](OC(=O)c3ccccc3)[C@]3(O)C[C@H](OC(=O)[C@H](O)[C@@H](NC(=O)c4ccccc4)c4ccccc4)C(C)=C1C3(C)C)[C@]1(OC(C)=O)CO[C@@H]1C[C@@H]2O [paclitaxel, reference compound]
tumor growth inhibition (KPL-4 tumors): 41%

Compound: CC(=O)Nc1cccc(-n2c(=O)n(C3CC3)c(=O)c3c(Nc4ccc(I)cc4F)n(C)c(=O)c(C)c32)c1 [trametinib, reference compound]
TGI [1]: 26%
